Measured values: patent publication US8263606B2 (Xenon Pharmaceuticals Inc., priority 2008, dated 2012)

Assays:
sodium channel = experiment: Guanidine influx assay (14C-guanidine radiotracer flux, in vitro); assay type: cell-based, human or rat; settings: guanidine influx assay using a known cell line that expresses a sodium channel
How it was run: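 Human or rat sodium channels stably expressed in endogenous or recombinant cells, plated ~100,000 cells/well for 20-24 h at 37 °C. Cells were treated with test agent in low-sodium choline HEPES saline plus aconitine and 14C-guanidine at ambient temperature, washed, and counted by scintillation; IC50 from 4-parameter logistic fit.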

[1] = tested on: inactivated state of the channel of interest (sodium channel); experiment: Electrophysiological assay (whole cell voltage clamp, in vitro); assay type: cell-based; settings: affinity for the inactivated state of the channel of interest
Description: Cells expressing the channel of interest are cultured in DMEM growth media (Gibco) with 0.5 mg/mL G418, +/−1% PSG, and 10% heat-inactivated fetal bovine serum at 37° C. and 5% CO2. For electrophysiological recordings, cells are plated on 10 mm dishes.
Whole cell recordings are examined by established methods of whole cell voltage clamp (Bean et al., op. cit.) using an Axopatch 200B amplifier and Clampex software (Axon Instruments, Union City, Calif.). All experiments are performed at ambient temperature. Electrodes are fire-polished to resistances of 2-4 Mohms Voltage errors and capacitance artifacts are minimized by series resistance compensation and capacitance compensation, respectively. Data are acquired at 40 kHz and filtered at 5 kHz. The external (bath) solution consists of: NaCl (140 mM), KCl (5 mM), CaCl2 (2 mM), MgCl2 (1 mM), HEPES (10 mM) at pH 7.4. The internal (pipette) solution consists of (in mM): NaCl (5), CaCl2 (0.1), MgCl2 (2), CsCl (10), CsF (120), HEPES (10), EGTA (10), at pH 7.2.
To estimate the steady-state affinity of compounds for the resting and inactivated state of the channel (Kr and Ki, respectively), 12.5 ms test pulses to depolarizing voltages from −60 to +90 mV from a holding potential of −120 m V is used to construct current-voltage relationships (I-V curves). A voltage near the peak of the IV-curve (−30 to 0 m V) is used as the test pulse throughout the remainder of the experiment. Steady-state inactivation (availability) curves are then constructed by measuring the current activated during a 8.75 ms test pulse following 1 second conditioning pulses to potentials ranging from −120 to −10 m V.
The steady-state voltage-dependence of binding of a compound to a sodium channel is determined by measuring the blockage of the ionic current at two holding potentials. Binding to rested-state channels is determined by using a holding potential of −120 mV, so that maximal availability is achieved. Binding to inactivated-state channels is evaluated at a holding potential such that only 10% of the channels are available to open. The membrane potential is held at this voltage for at least 10 seconds so that drug binding can equilibrate.
The apparent dissociation constant at each voltage is calculated with the equation:
[formula] where Kd is the dissociation constant (either Kr or Ki), and [Drug] is the concentration of the test compound.
The Example numbers provided in Table 3 correspond to the Examples herein: […]

CYP3A4 = CYP3A4 (Homo sapiens, UniProt P08684); experiment: Cytochrome P450 (CYP450) Inhibition Assay, CYP3A4 (Vivid fluorescence, BOMCC substrate); settings: human, P450 Baculosomes (recombinant CYP3A4), probe BOMCC (Vivid substrate)
CYP3A4, sequence (P08684 whole entry): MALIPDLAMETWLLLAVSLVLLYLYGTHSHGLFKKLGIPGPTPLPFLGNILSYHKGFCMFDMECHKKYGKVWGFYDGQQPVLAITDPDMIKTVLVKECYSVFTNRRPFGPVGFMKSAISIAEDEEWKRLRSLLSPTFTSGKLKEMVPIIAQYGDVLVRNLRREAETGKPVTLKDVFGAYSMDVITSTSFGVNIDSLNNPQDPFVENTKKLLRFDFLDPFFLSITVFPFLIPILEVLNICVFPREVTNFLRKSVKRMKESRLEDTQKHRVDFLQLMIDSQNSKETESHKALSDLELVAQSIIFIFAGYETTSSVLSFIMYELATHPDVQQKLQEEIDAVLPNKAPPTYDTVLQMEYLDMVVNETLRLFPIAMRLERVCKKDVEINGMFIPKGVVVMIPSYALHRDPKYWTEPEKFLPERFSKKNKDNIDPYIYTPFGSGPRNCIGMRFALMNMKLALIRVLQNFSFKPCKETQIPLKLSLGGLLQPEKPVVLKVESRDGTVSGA

SMILES | IC50 (sodium channel; activity level class) | Ki [1] | melting point | inhibition at 10 µM (CYP3A4) | IC50 (sodium channel)
O=C1N(CC2CCCCO2)c2ccccc2C12COc1cc3c(cc12)OCCO3 (stereo not drawn) [Example 4.38, 1′-(tetrahydro-2H-pyran-2-ylmethyl)-2,3-dihydrospiro[furo[2,3-g][1,4]benzodioxine-8,3′-indol]-2′(1′H)-one] | 1 to 100 nM | < 300 nM | 158 to 166 °C | < 50% | –
O=C1N(C[C@@H]2COCCO2)c2ccccc2C12COc1cc3c(cc12)OCCCO3 (stereo partly drawn) [Example 8.12, 1′-[(2R)-1,4-dioxan-2-ylmethyl]-3,4-dihydro-2H-spiro[furo[2,3-h][1,5]benzodioxepine-9,3′-indol]-2′(1′H)-one] | 100 to 1000 nM | > 300 nM | 144 to 147 °C | < 50% | –
Cc1noc2cc3c(cc12)C1(CO3)C(=O)N(Cc2ccc(C(F)(F)F)o2)c2ccccc21 (stereo not drawn) [Example 9, 3-methyl-1′-{[5-(trifluoromethyl)furan-2-yl]methyl}spiro[furo[3,2-f][1,2]benzisoxazole-5,3′-indol]-2′(1′H)-one] | 1 to 100 nM | < 300 nM | 111 to 112 °C | > 50% | –
O=C1N(CC2CN(Cc3ccccc3)CCO2)c2ccccc2C12COc1cc3c(cc12)CCO3 (stereo not drawn) [Example 4.29, 1′-[(4-benzylmorpholin-2-yl)methyl]-5,6-dihydrospiro[benzo[1,2-b:5,4-b′]difuran-3,3′-indol]-2′(1′H)-one] | 1000 to 10000 nM | > 300 nM | 65 to 70 °C | > 50% | –
O=C1N(Cc2ncccn2)c2ccccc2[C@]12COc1cc3c(cc12)OCCO3 [Example 5.18, (8S)-1′-(pyrimidin-2-ylmethyl)-2,3-dihydrospiro[furo[2,3-g][1,4]benzodioxine-8,3′-indol]-2′(1′H)-one] | 1 to 100 nM | < 300 nM | 210 to 212 °C | < 50% | –
O=C1N(C[C@H]2COCCO2)c2ccccc2[C@]12COc1cc3c(cc12)OCCO3 [Example 8.7, (8S)-1′-[(2S)-1,4-dioxan-2-ylmethyl]-2,3-dihydrospiro[furo[2,3-g][1,4]benzodioxine-8,3′-indol]-2′(1′H)-one] | 1 to 100 nM | > 300 nM | 198 to 200 °C | – | –
O=C1Nc2cccc(-c3ccc(Oc4ccccc4)cc3)c2C12COc1cc3c(cc12)OCCO3 (stereo not drawn) [Example 3.35, 4′-(4-phenoxyphenyl)-2,3-dihydrospiro[furo[2,3-g][1,4]benzodioxine-8,3′-indol]-2′(1′H)-one] | 100 to 1000 nM | > 300 nM | 243 to 246 °C | > 50% | –
O=C1N(C[C@H]2CCCO2)c2cccc(-c3ccc(Oc4ccccc4)cc3)c2C12COc1cc3c(cc12)CCO3 (stereo partly drawn) [Example 16.6, 4′-(4-phenoxyphenyl)-1′-[(2R)-tetrahydrofuran-2-ylmethyl]-5,6-dihydrospiro[benzo[1,2-b:5,4-b′]difuran-3,3′-indol]-2′(1′H)-one] | – | < 300 nM | – | < 50% | 100 to 1000 nM
CC(C)COc1ccc(-c2cccc3c2C2(COc4cc5c(cc42)CCO5)C(=O)N3C[C@H]2CCCO2)cc1 (stereo partly drawn) [Example 16.7, 4′-[4-(2-methylpropoxy)phenyl]-1′-[(2R)-tetrahydrofuran-2-ylmethyl]-5,6-dihydrospiro[benzo[1,2-b:5,4-b′]difuran-3,3′-indol]-2′(1′H)-one] | – | < 300 nM | – | < 50% | 100 to 1000 nM
CN1C(=O)COc2cc3c(cc21)OCC31C(=O)N(C[C@H]2CCCO2)c2ccccc21 (stereo partly drawn) [Example 9.23, 4-methyl-1′-(((R)-tetrahydrofuran-2-yl)methyl)-4,7-dihydrospiro[benzofuro[5,6-b][1,4]oxazine-8,3′-indoline]-2′,3(2H)-dione] | 1 to 100 nM | > 300 nM | – | < 50% | –
COc1cc2c(cc1C)[C@@]1(CO2)C(=O)N(CN2CCN(C)CC2)c2ccccc21 [Example 11.64, (3S)-6-methoxy-5-methyl-1′-[(4-methylpiperazin-1-yl)methyl]spiro[1-benzofuran-3,3′-indol]-2′(1′H)-one hydrogen chloride] | – | > 300 nM | – | < 50% | 1 to 100 nM
CN(C)c1ccc(-c2cccc3c2C2(COc4cc5c(cc42)CCO5)C(=O)N3C[C@H]2CCCO2)cn1 (stereo partly drawn) [Example 16, 4′-[6-(dimethylamino)pyridin-3-yl]-1′-[(2R)-tetrahydrofuran-2-ylmethyl]-5,6-dihydrospiro[benzo[1,2-b:5,4-b′]difuran-3,3′-indol]-2′(1′H)-one] | – | > 300 nM | – | > 50% | 100 to 1000 nM
O=C1N(CC2CCCOC2)c2ccccc2C12COc1cc3c(cc12)CCO3 (stereo not drawn) [Example 4.10, 1′-(tetrahydro-2H-pyran-3-ylmethyl)-5,6-dihydrospiro[benzo[1,2-b:5,4-b′]difuran-3,3′-indol]-2′(1′H)-one] | 1 to 100 nM | > 300 nM | – | < 50% | –
O=C1N(CC2CCOC2)c2ccccc2C12COc1cc3c(cc12)CCO3 (stereo not drawn) [Example 4.16, 1′-(tetrahydrofuran-3-ylmethyl)-5,6-dihydrospiro[benzo[1,2-b:5,4-b′]difuran-3,3′-indol]-2′(1′H)-one] | 100 to 1000 nM | > 300 nM | – | < 50% | –
O=C1N(CC2CCO2)c2ccccc2C12COc1cc3c(cc12)CCO3 (stereo not drawn) [Example 4.20, 1′-(oxetan-2-ylmethyl)-5,6-dihydrospiro[benzo[1,2-b:5,4-b′]difuran-3,3′-indol]-2′(1′H)-one] | 100 to 1000 nM | > 300 nM | – | < 50% | –
COc1ccc(-c2cccc3c2C2(COc4cc5c(cc42)CCO5)C(=O)N3C[C@H]2CCCO2)cc1 (stereo partly drawn) [Example 16.9, 4′-(4-methoxyphenyl)-1′-[(2R)-tetrahydrofuran-2-ylmethyl]-5,6-dihydrospiro[benzo[1,2-b:5,4-b′]difuran-3,3′-indol]-2′(1′H)-one] | – | < 300 nM | – | > 50% | 1 to 100 nM
O=C1N(C[C@@H]2CCCO2)c2ccccc2[C@]12COc1cc3c(cc12)CCO3 [Example 11.69, (3S)-1′-[(2S)-tetrahydrofuran-2-ylmethyl]-5,6-dihydrospiro[benzo[1,2-b:5,4-b′]difuran-3,3′-indol]-2′(1′H)-one] | – | > 300 nM | – | < 50% | 1000 to 10000 nM
O=C1N(Cc2ncccc2C(F)(F)F)c2ccccc2[C@]12COc1cc3c(cc12)OCCO3 [Example 1.12, (8S)-1′-{[3-(trifluoromethyl)pyridin-2-yl]methyl}-2,3-dihydrospiro[furo[2,3-g][1,4]benzodioxine-8,3′-indol]-2′(1′H)-one] | 1 to 100 nM | < 300 nM | – | < 50% | –
O=C1N(CC2CCCCO2)c2ccccc2C12COc1cc3c(cc12)CCO3 (stereo not drawn) [Example 4, 1′-(tetrahydro-2H-pyran-2-ylmethyl)-5,6-dihydrospiro[benzo[1,2-b:5,4-b′]difuran-3,3′-indol]-2′(1′H)-one] | 1 to 100 nM | > 300 nM | – | < 50% | –
O=C1N(Cc2ccc(C(F)(F)F)o2)c2c(Cl)cccc2C12COc1cc3c(cc12)CCO3 (stereo not drawn) [Example 5.1, 7′-chloro-1′-((5-(trifluoromethyl)furan-2-yl)methyl)-5,6-dihydro-2H-spiro[benzofuro[6,5-b]furan-3,3′-indolin]-2′-one] | 100 to 1000 nM | < 300 nM | – | > 50% | –
COc1ccc2c(c1)OCC21C(=O)N(C[C@H]2CCCO2)c2ccccc21 (stereo partly drawn) [Example 4.68, 6-methoxy-1′-[(2R)-tetrahydrofuran-2-ylmethyl]spiro[1-benzofuran-3,3′-indol]-2′(1′H)-one] | 100 to 1000 nM | > 300 nM | – | < 50% | –
O=C1N(CC2CCOCC2)c2ccccc2C12COc1cc3c(cc12)CCO3 (stereo not drawn) [Example 4.6, 1′-(tetrahydro-2H-pyran-4-ylmethyl)-5,6-dihydrospiro[benzo[1,2-b:5,4-b′]difuran-3,3′-indol]-2′(1′H)-one] | 100 to 1000 nM | > 300 nM | – | < 50% | –
